Earlier results in patent publication US20090175941A1, “Tablet-form slow-release preparation for vertigo” (priority 2005, published 2009).

solubility in water: approximately 2 mg/100 ml
Structure (SMILES): C(=C\c1ccccc1)/CN1CCN(C(c2ccccc2)c2ccccc2)CC1 [cinnarizine, 1-benzhydryl-4-trans-cinnamylpiperazine]
